What was measured:
gastric mucosa = assay: gastric mucosal injury induced by ethanol (action of protecting gastric mucosa); format: in vivo, Male Sprague-Dawley rats; details: Rattus norvegicus, po; 6 rats per group; doses 3, 10 and 30 mg/kg; 30 min before 1 ml of 100% ethanol; read-out: Action of protecting gastric mucosa ID50
Description: As a method of determining the ability to protect gastric mucosa, gastric mocosal injury induced by ethanol [Robert A., Gastroenterology 77, 761 (1979)] is often used. This method was applied to evaluation of the compounds of this invention. Male Sprague-Dawley rats 7-weeks old were fasted for 24 hours. These animals were administered test compounds into the stomach by using a gastric tube. After 30 minutes, 1 ml of 100% ethanol was administered orally. The animals were killed by carbon dioxide gas 60 minutes after ethanol administration. The stomach was removed together with the lower part of esophagus and the duodenum. The esophagus was clipped, 10 ml of 1% formalin solution was instilled into the stomach from the duodenum, and then the duodenum was clipped. The whole stomach was immersed in 1% formalin solution. About 15 minutes later, the stomachs were opened along the greater curvature. Length of the lesions which occurred in the gastric corpus mucosa was measured under a dissecting microscope with a square-grid eye piece (×10). The sum total length of the individual lesions in each animal was measured, and the average value per group was calculated. Based on the difference between the average value of each group and that of the control group, the inhibition rate was determined. The test compound was suspended in a 5% gum arabic solution, and administered in a volume of 2 ml/kg. | administered in a dose of 3, 10 and 30 mg/kg to determine ID50.

oral toxicity in mice = format: in vivo; details: oral administration, 500 mg/kg

Row | SMILES | ED50 (gastric mucosa) [mg/kg] | fatal effect (oral toxicity in mice)
1 | COc1ccc2[nH]c([S+]([O-])Cc3ncc(C)c(OC)c3C)nc2c1 (stereo not shown) [5-OCH3, CH3, CH3, CH3, reference compound] | 22 | 
2 | COc1c(OCC(F)(F)F)ccnc1C[S+]([O-])c1nc2ccccc2[nH]1 (stereo not shown) [Example 18, 2-[[3-methoxy-4-(2,2,2-trifluoroethoxy)pyrid-2-yl]methylsulfinyl]benzimidazole] | 6.2 | no fatal effect
3 | COc1ccnc(C[S+]([O-])c2nc3ccc(C(F)(F)F)cc3[nH]2)c1OC (stereo not shown) [Example 9, 2-[(3,4-dimethoxypyrid-2-yl)methylsulfinyl]-5-trifluoromethylbenzimidazole] | 3 | 
4 | COc1ccnc(C[S+]([O-])c2nc3ccccc3[nH]2)c1OC (stereo not shown) [Example 6, 2-[(3,4-dimethoxypyrid-2-yl)methylsulfinyl]benzimidazole] | 3.2 | no fatal effect
5 | COc1ccnc(C[S+]([O-])c2nc3cc(C(F)(F)F)ccc3[nH]2)c1C (stereo not shown) [5-CF3, CH3, CH3, H, reference compound] | 24 | 

— patent US4738975A, “Pyridine derivatives, and use as anti-ulcer agents” (Takeda Chemical Industries, Ltd., priority 1985, dated 1988)
